ChEMBL document CHEMBL1201862, “PubChem BioAssay data set” (2004)
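Results reflect a 48-hour exposure of cells in 96-well plates to compound at five concentrations. The concentration for 50% growth inhibition is given as GI50.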 The source made the active and inactive calls. No stated cut-off is given here; in the data, active = GI50 up to about 1.1 µM and inactive = higher.

What was measured:
Assay in all cases: growth of human tumour cells (NCI), 48 h
[1] = tested on: UACC-257
[2] = tested on: SW-620
[3] = tested on: OVCAR-3
[4] = tested on: NCI-H460
[5] = tested on: LOX IMVI
[6] = tested on: UACC-62
[7] = tested on: SK-OV-3
[8] = tested on: A498
[9] = tested on: DU-145
[10] = tested on: OVCAR-8
[11] = tested on: TK-10
[12] = tested on: U-251
[13] = tested on: RXF 393
[14] = tested on: COLO 205
[15] = tested on: Hs-578T
[16] = tested on: HOP-62
[17] = tested on: 786-0
[18] = tested on: HCC 2998
[19] = tested on: RPMI-8226
[20] = tested on: BT-549

Measured: GI50

CCOC(=O)c1c(SC(=O)/C=C/c2ccccc2)n(-c2ccccc2)c(=S)n(-c2ccccc2)c1=O
inactive: [1] > 100 µM | [2] > 100 µM | [3] > 100 µM | [4] > 100 µM | [5] > 100 µM | [6] > 100 µM | [7] > 100 µM | [8] > 100 µM | [9] > 100 µM | [10] > 100 µM | [11] > 100 µM | [12] > 100 µM | [13] > 100 µM | [14] > 100 µM | [15] > 100 µM | [16] > 100 µM | [17] > 100 µM | [18] > 100 µM

O=[N+]([O-])c1cccc([N+](=O)[O-])c1Cl
inactive: [1] 11 µM | [2] 17 µM | [3] 1.29 µM | [4] 23.3 µM | [5] 1.35 µM | [6] 17.5 µM | [19] 1.15 µM | [8] 21.8 µM | [9] 2.86 µM | [10] 16.4 µM | [11] 21.9 µM | [12] 11 µM | [13] 17.7 µM | [14] 20.6 µM | [15] 27 µM | [16] 23.5 µM | [17] 26.4 µM | [18] 1.47 µM

CC(C)(C)NCc1cc(Nc2ccnc3cc(Cl)ccc23)cc(-c2ccc(Cl)cc2)c1O
inactive: [1] 2.03 µM | [2] 2.26 µM | [3] 2.66 µM | [4] 2.03 µM | [5] 2.17 µM | [6] 1.92 µM | [7] 3.07 µM | [19] 1.69 µM | [8] 2.94 µM | [9] 4.53 µM | [10] 3.81 µM | [11] 2.43 µM | [12] 2.59 µM | [13] 1.79 µM | [14] 1.81 µM | [15] 3.43 µM | [16] 2.06 µM | [17] 1.87 µM | [18] 2.21 µM

COC(=O)C1(C(=O)OC)CC(=O)c2c(OC(=O)c3cccc(OC)c3C#N)ccc(OC(=O)c3cccc(OC)c3C#N)c2C1
inactive: [1] > 100 µM | [2] > 100 µM | [3] > 100 µM | [4] > 100 µM | [5] > 100 µM | [6] > 100 µM | [7] > 100 µM | [19] 39.1 µM | [8] 31.3 µM | [9] > 100 µM | [10] > 100 µM | [11] > 100 µM | [12] > 100 µM | [13] > 100 µM | [14] > 100 µM | [15] > 100 µM | [16] > 100 µM | [17] > 100 µM | [18] > 100 µM

c1ccc(CNc2nncc3[nH]cnc23)cc1
inactive: [1] > 100 µM | [2] > 100 µM | [3] > 100 µM | [5] 88.9 µM | [6] > 100 µM | [7] > 100 µM | [19] > 100 µM | [20] > 100 µM | [8] > 100 µM | [10] > 100 µM | [11] > 100 µM | [12] > 100 µM | [14] > 100 µM | [16] > 100 µM | [17] > 100 µM | [18] > 100 µM

COC1(OC)N=C(N)C2(C#N)C3(C(=O)N(C(C)C)N=C3C)C12C#N (configuration not stated)
inactive: [1] > 100 µM | [2] > 100 µM | [3] 49.7 µM | [4] > 100 µM | [6] > 100 µM | [7] > 100 µM | [19] > 100 µM | [20] > 100 µM | [8] > 100 µM | [9] > 100 µM | [10] > 100 µM | [12] > 100 µM | [13] > 100 µM | [14] > 100 µM | [16] > 100 µM | [17] > 100 µM | [18] > 100 µM

Cc1ccc(/N=N/C(=O)NNc2ccc(C)c([N+](=O)[O-])c2)cc1[N+](=O)[O-]
inactive: [1] 25.8 µM | [2] 41 µM | [3] 28.1 µM | [4] 28.6 µM | [5] 17.3 µM | [6] 13.9 µM | [19] 19.9 µM | [20] 30.8 µM | [8] 14.7 µM | [9] 25.1 µM | [10] 26.2 µM | [11] 45.1 µM | [12] 29.9 µM | [16] 20.8 µM | [17] 28.2 µM | [18] 17.4 µM

CCOC(=O)c1cn(CC)c(=O)n2c1nc1ccccc12
inactive: [1] > 100 µM | [2] > 100 µM | [3] 83.8 µM | [4] 35.4 µM | [5] 31.9 µM | [6] 57.5 µM | [19] 24.4 µM | [20] 56.9 µM | [8] 32.4 µM | [9] 45.5 µM | [10] 38.3 µM | [12] > 100 µM | [13] 61.9 µM | [14] > 100 µM | [16] > 100 µM | [17] 58.5 µM | [18] 96.8 µM

C=C/C(C)=C\CC1[C@](C)(O)CC[C@H]2C(C)(C)C(=O)CC[C@]12C (some centres not stated)
inactive: [1] 64.4 µM | [2] > 100 µM | [3] 41.7 µM | [4] 50.6 µM | [5] 93.8 µM | [6] > 100 µM | [19] 29 µM | [8] > 100 µM | [9] > 100 µM | [10] > 100 µM | [11] > 100 µM | [12] > 100 µM | [13] 32.3 µM | [14] 92.3 µM | [15] > 100 µM | [17] > 100 µM

OCCSCCCSCCO
inactive: [1] > 100 µM | [2] > 100 µM | [3] > 100 µM | [4] 34.8 µM | [5] > 100 µM | [6] > 100 µM | [7] > 100 µM | [20] > 100 µM | [9] > 100 µM | [10] > 100 µM | [11] > 100 µM | [12] > 100 µM | [14] > 100 µM | [16] > 100 µM | [17] > 100 µM | [18] > 100 µM

COc1ccc(/N=N/c2c(O)ccc3ccccc23)cc1
inactive: [1] > 100 µM | [2] 86.1 µM | [3] 28.6 µM | [5] 49.2 µM | [6] 15.6 µM | [7] 8.2 µM | [20] 27.4 µM | [10] 13.2 µM | [11] 17.1 µM | [12] 15.8 µM | [13] 41.2 µM | [14] > 100 µM | [15] 11.2 µM | [16] 13.8 µM | [17] 61.8 µM
